The numbers were not newly measured in patent US10898463B2, “High-strength oral cannabinoid dosage forms” (ICDPHARMA LTD, priority 2016, dated 2021), which cites them from elsewhere.

For this data set the following is noted: octanol/water.
A word on the LogP: it is the decadic logarithm of the partition coefficient of the neutral form, usually between octanol and water. For `CC1=CCC2CC1C2(C)C` (stereo not shown) [Alfa-pinene], the LogP is 4.37.
As to `C=C1CC/C=C(\C)CC[C@@H]2[C@@H]1CC2(C)C` [Beta-caryophyllene], the LogP was 4.72.
With `CC(C)=CCC[C@](C)(O)C1CC=C(C)CC1` (stereo partly shown) [Bisabolol], the LogP is 5.07.
Regarding `C=C1C2CCC(C2)C1(C)C` (stereo not shown) [Camphene], the LogP is recorded as 4.24.
For `CC12CCC(CC1=O)C2(C)C` (stereo not shown) [Camphor], the lipophilicity (LogP) is given as 2.55.
In the case of `CC1=CCC2C(C1)C2(C)C` (stereo not shown) [Carene], the log partition coefficient (LogP) is given as 4.32.
Regarding `CC12CCC(CC1)C(C)(C)O2` [Cineol], the log partition coefficient (LogP) is 2.7.
Consider `C=CCc1ccc(O)c(OC)c1` [Eugenol], for which the LogP is listed as 2.66.
Turning to `C=C(C)[C@H]1CC=C(C)CC1` [Limonene], the log partition coefficient (LogP) was 2.38.
For the compound `C=CC(C)(O)CCC=C(C)C` (stereo not shown) [Linalool], the log partition coefficient (LogP) is 2.65.
In the case of `COC(=O)c1ccccc1O` [Methyl salicylate], the LogP is 2.3.
As to `C=CC(=C)CCC=C(C)C` [Myrcene], the LogP is listed as 4.17.
Consider `C=CC(C)(O)CCC=C(C)CCC=C(C)C` (stereo not shown) [Nerolidol], for which the log partition coefficient (LogP) is 4.68.
For `C/C(=C\CO)CCC[C@H](C)CCC[C@H](C)CCCC(C)C` [Phytol], the log partition coefficient (LogP) was 7.04.
Take `CC(C)=C1CC[C@@H](C)CC1=O` [Pulegone]: the log partition coefficient (LogP) is 3.08.
In the case of `CC1=CCC(O)(C(C)C)CC1` (stereo not shown) [Terpinen-4-ol], the log partition coefficient (LogP) is 3.26.
Turning to `Cc1ccc(C(C)C)c(O)c1` [Thymol], the LogP was 3.28.
As to Citronella, the LogP is 3.53.
Take Terpinene: the log partition coefficient (LogP) is 4.5.
